Assay results published in article PMC13415951 (Journal of Experimental Botany, 2026).
Several values for one entry are separate records, joined by “and”; a condition that tells them apart may be missing. Identical values can stand only once. Like-named read-outs stand apart in the source and are kept apart here.

Experiments:
BdUGT5g03300 [1] = target: T1, BdUGT5g03300 (Brachypodium distachyon, UniProt I1IW79); assay: biochemical
T1 sequence (I1IW79 1-469): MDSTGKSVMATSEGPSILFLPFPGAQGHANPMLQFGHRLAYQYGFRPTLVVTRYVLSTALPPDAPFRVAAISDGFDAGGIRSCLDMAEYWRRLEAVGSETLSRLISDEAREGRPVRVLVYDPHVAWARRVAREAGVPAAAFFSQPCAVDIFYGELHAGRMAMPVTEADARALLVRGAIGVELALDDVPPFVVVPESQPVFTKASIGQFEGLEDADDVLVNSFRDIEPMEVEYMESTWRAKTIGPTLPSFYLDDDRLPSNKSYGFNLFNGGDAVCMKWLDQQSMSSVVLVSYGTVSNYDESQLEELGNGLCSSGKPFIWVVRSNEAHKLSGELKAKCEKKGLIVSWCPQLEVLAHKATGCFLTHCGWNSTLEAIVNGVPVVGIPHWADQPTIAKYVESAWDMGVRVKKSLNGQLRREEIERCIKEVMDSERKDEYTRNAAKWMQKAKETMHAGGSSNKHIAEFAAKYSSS

[2] = target: T2, OsUGT79 H122A/L123A/Q202A (Oryza sativa subsp. japonica, UniProt Q7XT97, H122A/L123A/Q202A); assay: biochemical; type: biochemical
T2 sequence (Q7XT97 1-466 H122A/L123A/Q202A): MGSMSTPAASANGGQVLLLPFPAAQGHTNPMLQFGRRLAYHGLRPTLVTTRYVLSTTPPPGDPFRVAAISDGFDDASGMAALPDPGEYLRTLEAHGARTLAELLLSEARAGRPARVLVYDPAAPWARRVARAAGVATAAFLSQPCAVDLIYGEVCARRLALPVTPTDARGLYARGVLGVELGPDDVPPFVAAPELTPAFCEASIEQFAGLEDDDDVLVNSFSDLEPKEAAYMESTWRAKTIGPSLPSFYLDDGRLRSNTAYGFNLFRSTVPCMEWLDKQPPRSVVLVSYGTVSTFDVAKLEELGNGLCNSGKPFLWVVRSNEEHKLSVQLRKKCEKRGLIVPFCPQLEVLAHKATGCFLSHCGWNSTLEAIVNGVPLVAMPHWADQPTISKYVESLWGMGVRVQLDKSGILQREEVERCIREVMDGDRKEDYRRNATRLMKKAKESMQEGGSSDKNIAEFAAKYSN

OsUGT79 Q202A [3] = target: T3, OsUGT79 Q202A (Oryza sativa subsp. japonica, UniProt Q7XT97, Q202A); type: biochemical
T3 sequence (Q7XT97 1-466 Q202A): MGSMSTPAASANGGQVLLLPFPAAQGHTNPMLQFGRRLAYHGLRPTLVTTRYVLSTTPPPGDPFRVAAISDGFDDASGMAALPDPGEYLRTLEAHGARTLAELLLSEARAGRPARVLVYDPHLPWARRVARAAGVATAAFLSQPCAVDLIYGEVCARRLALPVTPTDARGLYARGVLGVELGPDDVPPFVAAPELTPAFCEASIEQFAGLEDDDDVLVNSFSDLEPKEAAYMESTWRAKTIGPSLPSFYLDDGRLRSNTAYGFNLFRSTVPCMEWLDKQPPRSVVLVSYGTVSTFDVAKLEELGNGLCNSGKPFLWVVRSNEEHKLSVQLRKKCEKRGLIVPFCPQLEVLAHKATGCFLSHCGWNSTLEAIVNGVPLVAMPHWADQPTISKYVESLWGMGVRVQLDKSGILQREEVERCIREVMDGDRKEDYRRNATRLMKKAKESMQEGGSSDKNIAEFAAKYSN

OsUGT79 [4] = target: T4, OsUGT79 (Oryza sativa subsp. japonica, UniProt Q7XT97); assay: biochemical; type: biochemical
T4 construct: made in house; host or cells: E. coli
T4 sequence (Q7XT97 1-466): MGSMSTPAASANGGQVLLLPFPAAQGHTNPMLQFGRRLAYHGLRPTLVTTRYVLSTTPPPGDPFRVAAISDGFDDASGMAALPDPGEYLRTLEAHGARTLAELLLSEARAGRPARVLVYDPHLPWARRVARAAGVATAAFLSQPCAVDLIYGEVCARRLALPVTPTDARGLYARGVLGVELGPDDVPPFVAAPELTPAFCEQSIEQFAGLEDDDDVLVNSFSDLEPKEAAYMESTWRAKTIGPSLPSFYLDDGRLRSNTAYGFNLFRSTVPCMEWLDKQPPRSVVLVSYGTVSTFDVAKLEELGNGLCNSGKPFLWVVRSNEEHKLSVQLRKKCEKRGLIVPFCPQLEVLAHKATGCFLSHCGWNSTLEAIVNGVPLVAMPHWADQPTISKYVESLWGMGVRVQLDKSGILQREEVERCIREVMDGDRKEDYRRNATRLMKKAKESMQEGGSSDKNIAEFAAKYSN

BdUGT5g03300 [5] = target: T1, BdUGT5g03300; type: biochemical
OsUGT79 Q202A [6] = target: T3, OsUGT79 Q202A; assay: biochemical; type: biochemical
OsUGT79 [7] = target: T4, OsUGT79; assay: biochemical; type: biochemical; remark: listed apart in the source
HvUGT13248 [8] = target: T5, HvUGT13248 (Hordeum vulgare subsp. vulgare, UniProt M0Y4P1)
T5 sequence (M0Y4P1 1-475): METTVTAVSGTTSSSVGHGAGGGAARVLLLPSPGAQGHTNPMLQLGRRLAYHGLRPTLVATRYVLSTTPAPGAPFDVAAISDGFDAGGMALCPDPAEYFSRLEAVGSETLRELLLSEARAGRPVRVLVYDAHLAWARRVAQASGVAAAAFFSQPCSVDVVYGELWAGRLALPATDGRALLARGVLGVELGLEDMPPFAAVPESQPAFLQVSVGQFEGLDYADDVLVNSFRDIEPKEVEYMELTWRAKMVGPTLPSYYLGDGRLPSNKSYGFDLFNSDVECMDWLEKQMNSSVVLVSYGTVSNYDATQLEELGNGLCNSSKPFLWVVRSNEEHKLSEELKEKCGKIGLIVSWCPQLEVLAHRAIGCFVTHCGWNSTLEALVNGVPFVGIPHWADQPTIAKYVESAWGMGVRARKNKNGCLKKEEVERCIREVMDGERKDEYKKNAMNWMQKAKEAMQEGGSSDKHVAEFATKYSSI

[9] = system: B. distachyon line OE-10R14; set-up: species or system Brachypodium distachyon; settings: in vivo
[10] = target: T2, OsUGT79 H122A/L123A/Q202A; type: biochemical
HvUGT13248 [11] = target: T5, HvUGT13248; assay: biochemical; type: biochemical; set-up: made in house; host or cells: E. coli
[12] = system: wheat cultivar Apogee seedlings; set-up: species or system Triticum aestivum; settings: in vivo
B. distachyon Bd21-3 = system: B. distachyon Bd21-3; set-up: species or system Brachypodium distachyon; settings: in vivo
[13] = substrate: CC1(C)CCC[C@]2(C)[C@@H]3[C@H]1[C@@H](O)[C@@]2(C)C[C@H]3O; assay: purified protein, by the assay type

11-Acetyl-culmorin
Glucosylation rate of DON, percentage of the control (BdUGT5g03300 [1]): 0.83±0.01%

CC1=C[C@H]2O[C@@H]3[C@H](O)C[C@](C)([C@@]2(CO)[C@H](O)C1=O)[C@]31CO1 [DON, deoxynivalenol]
K M (DON) [2]: 1300 µM | V max with DON [2]: 0.26 µmol/min/mg | Specific activity (glucoside formation) (OsUGT79 Q202A [3]): 161 ± 46 nmol/min/mg | K M (DON) (OsUGT79 [4]): 190 µM | V max with DON (OsUGT79 [4]): 0.63 µmol/min/mg | K M (DON) (BdUGT5g03300 [5]): 1100 µM | V max with DON (BdUGT5g03300 [5]): 0.14 µmol/min/mg | K M (DON) (OsUGT79 Q202A [6]): 290 µM | V max with DON (OsUGT79 Q202A [6]): 0.85 µmol/min/mg | Specific activity (glucoside formation) (OsUGT79 [7]): 159 ± 33 nmol/min/mg | Specific activity (glucoside formation) (HvUGT13248 [8]): 8.77 ± 0.52 nmol/min/mg | DON concentration tolerated without significant reduction in root length [9]: up to 50 mg l^−1 | Specific activity (glucoside formation) (BdUGT5g03300 [1]): 1.07 ± 0.03 nmol/min/mg | Specific activity (glucoside formation) [10]: 6.60 ± 0.31 nmol/min/mg | K M (DON) (HvUGT13248 [11]): 1800 µM | V max with DON (HvUGT13248 [11]): 0.18 µmol/min/mg | DON concentration at which root growth was already impaired [12]: 3 mg/L | Effect on primary and total root length [12]: significant reduction | DON concentration up to which root growth was observed (B. distachyon Bd21-3): up to 16 mg l^−1 | DON concentrations at which root growth was not affected or barely affected (B. distachyon Bd21-3): 2 to 8 mg/L

Culmorin-8,11-disulfate
Glucosylation rate of DON, percentage of the control (OsUGT79 [7]): 103±2% and 99±7% | Glucosylation rate of DON, percentage of the control (HvUGT13248 [8]): 98±2% | Glucosylation rate of DON, percentage of the control (BdUGT5g03300 [1]): 95±1% and 78±1%

Culmorin-8-glucoside
Glucosylation rate of DON, percentage of the control (OsUGT79 [7]): 97±7% and 91±7% | Glucosylation rate of DON, percentage of the control (HvUGT13248 [8]): 92±2% and 81±3% | Glucosylation rate of DON, percentage of the control (BdUGT5g03300 [1]): 0.93±0.02%

Culmorin-8-sulfate
Glucosylation rate of DON, percentage of the control (OsUGT79 [7]): 105±1% and 89±4% | Glucosylation rate of DON, percentage of the control (HvUGT13248 [8]): 97±4% and 79±1%

Culmorin-11-glucoside
Glucosylation rate of DON, percentage of the control (OsUGT79 [7]): 96±7% and 115±5% | Glucosylation rate of DON, percentage of the control (BdUGT5g03300 [1]): 0.48±0.03%

Culmorin-11-sulfate
Glucosylation rate of DON, percentage of the control (OsUGT79 [7]): 91±7% and 61±2% | Glucosylation rate of DON, percentage of the control (HvUGT13248 [8]): 90±2% and 49±3% | Glucosylation rate of DON, percentage of the control (BdUGT5g03300 [1]): 0.30±0.02%

B1: BdUGT5g03380 (Brachypodium distachyon) (protein)
chain: MESVNTSPHSSDHEGGGGGGAHVLLVPLPAQGHMNPMLQFGRRLAYHGLRPTLAATRYVLSTGPPPGAPFRVAAFSDGFDAGGMASCADPVEYCRKFEAVGSSTLAQAIESETAAGRAPTVLVYDPHMAWVPRVARAAGVPVAAFMSQSCAVDLVYGEAWAGRAPLPMADGSALKRRGIVSIDLAAEDLSPFVVSPEIYPKYLDVSIRQFEALDDADDVFVNSFRDLEPLEAEYMEKRWRAKTVGPTLPSFFLGDDRLPSNKAYGVNFFSATAPCMAWLDRQPARSVVLASYGTVYNLESMELDELGNGLCDSGKPFLWVVRSSEAEKLSEQLLGRCKEKGLIVPWCPQLDVLAHNAIGCFLTHCGWNSTTEAIVAGVPMVAMPRSADQPTTAKYVESAWGIGVRVRADEKGLVKRAEVEGCIKKVMDGEMKDEFRGNAAEWMRKAKEAMQEGGSSDKNIAEFAAKYLER
Km [13]: 150 µM | Vmax [13]: 0.43 ± 0.03 nmol/min/mg

B2: HvUGT13248 (Hordeum vulgare subsp. vulgare) (protein)
chain: METTVTAVSGTTSSSVGHGAGGGAARVLLLPSPGAQGHTNPMLQLGRRLAYHGLRPTLVATRYVLSTTPAPGAPFDVAAISDGFDAGGMALCPDPAEYFSRLEAVGSETLRELLLSEARAGRPVRVLVYDAHLAWARRVAQASGVAAAAFFSQPCSVDVVYGELWAGRLALPATDGRALLARGVLGVELGLEDMPPFAAVPESQPAFLQVSVGQFEGLDYADDVLVNSFRDIEPKEVEYMELTWRAKMVGPTLPSYYLGDGRLPSNKSYGFDLFNSDVECMDWLEKQMNSSVVLVSYGTVSNYDATQLEELGNGLCNSSKPFLWVVRSNEEHKLSEELKEKCGKIGLIVSWCPQLEVLAHRAIGCFVTHCGWNSTLEALVNGVPFVGIPHWADQPTIAKYVESAWGMGVRARKNKNGCLKKEEVERCIREVMDGERKDEYKKNAMNWMQKAKEAMQEGGSSDKHVAEFATKYSSI
Km ([13]; pH 7.0): 27 ± 4 µM | Vmax ([13]; pH 7.0): 18.2 ± 0.8 nmol/min/mg

B3: BdUGT5g03370 (Brachypodium distachyon) (protein)
chain: MDSINTTAQRSIGGGGGHVLLLPFPGMQGHANPMLQLGRRLAYHGLRPTLVVTRYVFSTTATTDGCPFPVAAISDGFDAGGIASCPDTAEYLRRMESVGSETLSRLISDEARAGRPVRVLVYDSHLPWARRAAKRAGVAAAAFLTQLCAVDVIYGEAWAGRVALPLTDGSALRGVLSVELGPDDVPPFVAAPEWYPAFTESALGQFDGLEEADDVLVNSFRDLEPKEADYMELVWRTKTVGPTLPSFYLDDNRLPLNKTYGFNLFSSIALCMEWLDKQVPCSVVLASYGTVANLNSTQLEELGYGLCNSRQPFLWVLRSDEAEKLPKDLRDKCNTKGLIVPFCPQLEVLAHKATGCFLTHCGWNSTIEAIVTGVPMVAIPQWADQPTTAKYVESAWGIGRRACPDRECLVTREKIERCVKEVICGEKEYTRNAAKWMQKAKEAMQQGGSSDKNISDFVAKYL
Km [13]: 59 ± 7 µM | Vmax [13]: 0.57 nmol/min/mg
